Earlier results as cited in patent publication US20080255097A1, “Methods for the Treatment of Substance Abuse and Dependence” (priority 2005, published 2008).

How the values were obtained:
allopregnanolone [1] = settings: in vivo
[2] = not given; remark: listed apart in the source
[3] = system: GABAA receptor α4 subunit mRNA; settings: withdrawal after long-term exposure
allopregnanolone [4] = settings: in vivo; remark: listed apart in the source
[5] = overdose
GABAA receptors = settings: 10 μM diazepam substituted for ethanol
[6] = system: GABAA receptor α4 subunit mRNA; settings: exposure at the time of ethanol withdrawal

For `NCC1(CC(=O)O)CCCCC1` [Gabapentin], the half-life (in vivo) is listed as 5 to 7 h and the metabolism (in vivo) is listed as “not appreciably metabolized”.

For `CNCCC(Oc1ccc(C(F)(F)F)cc1)c1ccccc1` (stereo not drawn) [fluoxetine], the “brain and cerebrospinal fluid content of allopregnanolone” value (allopregnanolone [1]) is listed as “increase”.

For `C[C@]12C=CC(=O)N[C@@H]1CC[C@@H]1[C@@H]2CC[C@]2(C)[C@@H](C(=O)Nc3cc(C(F)(F)F)ccc3C(F)(F)F)CC[C@@H]12` [Dutasteride, (5α,17β)-N-{2,5 bis(trifluoromethyl)phenyl}-3-oxo-4-azaandrost-1-ene-17-carboxamide], the “adverse effects compared with therapeutic dose of 0.5 mg” value ([2]; clinical study, daily doses of 5 mg, 60 subjects, 6 months) is given as “subjects for 6 months with no additional adverse effects to those” and the safety ([2]; volunteer studies, single doses up to 40 mg (80 times the therapeutic dose) for 7 days) is given as “without significant safety concerns. In a clinical study, daily doses”.

For `CCN(C(C)=O)c1cccc(-c2ccnc3c(C#N)cnn23)c1` [zalpelon], the “amount of α4 subunit mRNA on withdrawal of the drug” value (“amount of α4 subunit mRNA” below) [3] is listed as “marked increase”.

For `CN1CCC[C@H]1c1cccnc1` [nicotine], the half-life (in vivo) is given as “about 60 minutes” and the “cerebrocortical concentrations of allopregnanolone and its precursors” value (allopregnanolone [4]) is given as “increase”.

For `C=CCN1CC[C@]23c4c5ccc(O)c4O[C@H]2C(=O)CC[C@@]3(O)[C@H]1C5` [Naloxone, 17-allyl-4,5α-epoxy-3,14-dihydroxymorphinan-6-one], the half-life (in vivo) is listed as 1 to 1.67 h.

In the case of `Cc1ccc(-c2nc3ccc(C)cn3c2CC(=O)N(C)C)cc1` [zolpidem], the “amount of α4 subunit mRNA” value [3] is listed as “marked increase”.

For `CCCC(C)(COC(N)=O)COC(N)=O` [MEPROBROMATE], the “highest ingested amount with survival” value [5] is given as “much as 40 g”.

For `CN1C(=O)CN=C(c2ccccc2)c2cc(Cl)ccc21` [diazepam], the “effect on positive modulation of 3 μM flumazenil induced by ethanol withdrawal” value (GABAA receptors) is listed as “negated”, the “amount of α4 subunit mRNA” value [3] is listed as “marked increase” and the “effect on ethanol withdrawal-induced increase in abundance of α4 subunit mRNA” value [6] is listed as “antagonizes”.

For `N[C@@H]1C[C@H]1c1ccccc1` (racemic) [TRANYLCYPROMINE], the “time in which the drug is excreted” value (after withdrawal) is given as 24 h.
